Reference: patent publication US10597390B2, “Indoles for use in influenza virus infection” (Janssen Sciences Ireland UC, priority 2014, dated 2020)

Tests used:
[1] = system: influenza virus A/Taiwan/1/86 (H1N1); assay: organism not typed; type: cell-based; details: CPE in MDCK cells, three days post-virus exposure, ATPlite
in vitro = details: dog, TOX MDCK CC50

| Compound | IC50 ([1]; MDCK, 72 h) | CC50 at 3 days (in vitro) | IC50 [1] |
| --- | --- | --- | --- |
| O=C(N[C@@H]1CCC[C@H](Nc2nc(-c3c[nH]c4c(F)cc(F)cc34)ncc2F)C1)N1CCCC1 (racemic) [Compound 1, N-((cis)-3-((2-(5,7-difluoro-1H-indol-3-yl)-5-fluoropyrimidin-4-yl)amino)cyclohexyl)pyrrolidine-1-carboxamide] | 3 nM | 10.2 µM | – |
| CC(C)(C)C(CC(=O)O)Nc1nc(-c2c[nH]c3c(F)cc(F)cc23)ncc1F (racemic) [Compound 2] | 11 nM | 5.2 µM | – |
| Cn1cnc(C(=O)N[C@@H]2CCC[C@H](Nc3nc(-c4c[nH]c5c(F)cc(F)cc45)c(C#N)cc3F)C2)c1 (racemic) [Compound 3] | 5 nM | > 25 µM | – |
| N#Cc1cc(F)c(N[C@H]2CCC[C@@H](NC(=O)N3CCCC3)C2)nc1-c1c[nH]c2c(F)cc(F)cc12 (racemic) [Compound 4] | 4 nM | > 25 µM | – |
| CC(=O)NCc1cc(F)c(N[C@H]2CCC[C@@H](NC(=O)N3CCCC3)C2)nc1-c1c[nH]c2c(F)cc(F)cc12 (racemic) [Compound 6] | 50 nM | > 25 µM | – |
| O=C(N[C@@H]1CCC[C@H](Nc2nc(-c3c[nH]c4c(F)ccc(F)c34)ncc2F)C1)N1CCCC1 (racemic) [Compound 7] | 460 nM | > 25 µM | – |
| O=C(N[C@H]1CCC[C@@H](Nc2nc(-c3c[nH]c4c(F)cc(F)cc34)c(-c3nnc[nH]3)cc2F)C1)N1CCCC1 (racemic) [Compound 24] | 420 nM | > 25 µM | – |
| O=C(N[C@@H]1CCC[C@H](Nc2nc(-c3c[nH]c4c(F)cc(F)cc34)ncc2F)C1)c1ccccn1 (racemic) [Compound 90] | 9 nM | 10.9 µM | – |
| Cn1cnc(C(=O)N[C@@H]2CCC[C@H](Nc3nc(-c4c[nH]c5c(F)cc(F)cc45)ncc3F)C2)c1 (racemic) [Compound 92] | 4 nM | 11.4 µM | – |
| Cc1nc(C(=O)N[C@@H]2CCC[C@H](Nc3nc(-c4c[nH]c5c(F)cc(F)cc45)ncc3F)C2)c(C)o1 (racemic) [Compound 93] | 39 nM | > 25 µM | – |
| Cn1cccc1C(=O)N[C@@H]1CCC[C@H](Nc2nc(-c3c[nH]c4c(F)cc(F)cc34)ncc2F)C1 (racemic) [Compound 94] | 5 nM | 18.4 µM | – |
| O=C(N[C@@H]1CCC[C@H](Nc2nc(-c3c[nH]c4c(F)cc(F)cc34)ncc2F)C1)c1ccc(F)cn1 (racemic) [Compound 95] | 12 nM | > 25 µM | – |
| Cc1cc(C(=O)N[C@@H]2CCC[C@H](Nc3nc(-c4c[nH]c5c(F)cc(F)cc45)ncc3F)C2)nn1C (racemic) [Compound 96] | 5 nM | 10.5 µM | – |
| O=C(N[C@@H]1CCC[C@H](Nc2nc(-c3c[nH]c4c(F)cc(F)cc34)ncc2F)C1)c1ccno1 (racemic) [Compound 97] | 12 nM | > 22.7 µM | – |
| Cc1cc(F)c2[nH]cc(-c3ncc(F)c(N[C@H]4C5CCC(CC5)[C@@H]4C(=O)O)n3)c2c1 (racemic) [Compound 164] | 11 nM | 1.7 µM | – |
| N#Cc1cc(F)c2[nH]cc(-c3ncc(F)c(N[C@H]4CCC[C@@H](NC(=O)c5ccccn5)C4)n3)c2c1 (racemic) [Compound 173] | 13 nM | > 25 µM | – |
| Cn1cnc(C(=O)N[C@@H]2CCC[C@H](Nc3nc(-c4c[nH]c5c(F)cc(C#N)cc45)ncc3F)C2)c1 (racemic) [Compound 174] | 10 nM | > 25 µM | – |
| Cc1cc(C(=O)N[C@H]2CCC[C@@H](Nc3nc(-c4c[nH]c5c(F)cc(F)cc45)c(C(F)(F)F)cc3F)C2)nn1C (racemic) [Compound 177] | 38 nM | 14.7 µM | – |
| O=C(N[C@H]1CCC[C@@H](Nc2nc(-c3c[nH]c4c(F)cc(F)cc34)c(C(F)(F)F)cc2F)C1)c1ncn[nH]1 (racemic) [Compound 178] | 10 nM | 2.6 µM | – |
| Cc1nc(C(=O)N[C@H]2CCC[C@@H](Nc3nc(-c4c[nH]c5c(F)cc(F)cc45)c(C(F)(F)F)cc3F)C2)c(C)o1 (racemic) [Compound 179] | 81 nM | > 25 µM | – |

| Compound | IC50 ([1]; MDCK, 72 h) | CC50 at 3 days (in vitro) | IC50 [1] |
| --- | --- | --- | --- |
| O=C(N[C@H]1CCC[C@@H](Nc2nc(-c3c[nH]c4c(F)cc(F)cc34)c(C(F)(F)F)cc2F)C1)c1cnccn1 (racemic) [Compound 180] | 20 nM | > 25 µM | – |
| Cc1cc(C(=O)N[C@H]2CCC[C@@H](Nc3nc(-c4c[nH]c5c(F)cc(F)cc45)c(C(F)(F)F)cc3F)C2)on1 (racemic) [Compound 181] | 11 nM | 16.4 µM | – |
| CC(C)c1cc(C(=O)N[C@H]2CCC[C@@H](Nc3nc(-c4c[nH]c5c(F)cc(F)cc45)c(C(F)(F)F)cc3F)C2)no1 (racemic) [Compound 182] | – | > 25 µM | – |
| Cn1cnc(C(=O)N[C@H]2CCC[C@@H](Nc3nc(-c4c[nH]c5c(F)cc(Cl)cc45)c(C#N)cc3F)C2)c1 (racemic) [Compound 189] | 4 nM | 7.3 µM | – |
| Cc1cc(F)c2[nH]cc(-c3ncc(F)c(N[C@H]4CCC[C@@H](NC(=O)c5cn(C)cn5)C4)n3)c2c1 (racemic) [Compound 190] | 11 nM | 13.1 µM | – |
| N#Cc1cc(F)c(N[C@H]2CCC[C@@H](NC(=O)c3ccccn3)C2)nc1-c1c[nH]c2c(F)cc(F)cc12 (racemic) [Compound 208] | 6 nM | > 25 µM | – |
| Cc1cc(C(=O)N[C@@H]2CCC[C@H](Nc3nc(-c4c[nH]c5c(F)cc(F)cc45)c(C#N)cc3F)C2)nn1C (racemic) [Compound 210] | – | > 25 µM | 12 nM |
| O=C(O)[C@H]1[C@@H]2CC[C@@H](C2)[C@@H]1Nc1nc(-c2c[nH]c3c(F)cc(F)cc23)ncc1F (racemic) [Compound 217, (+/−)-(2-exo, 3-endo)-3-((2-(5,7-difluoro-1H-indol-3-yl)-5-fluoropyrimidin-4-yl)amino)bicyclo[2.2.1]heptane-2-carboxylic Acid] | 22 nM | 5 µM | – |
| CC[C@]1(C(=O)O)CCCC[C@@H]1Nc1nc(-c2c[nH]c3c(F)cc(F)cc23)ncc1F (racemic) [Compound 252] | 350 nM | 8.2 µM | – |
| CC(=O)NCc1cc(F)c(N[C@H]2CCC[C@@H](NC(=O)c3cn(C)cn3)C2)nc1-c1c[nH]c2c(F)cc(F)cc12 (racemic) [Compound 258] | 160 nM | > 25 µM | – |
| O=C(N[C@@H]1CCC[C@H](Nc2nc(-c3c[nH]c4c(F)cc(C(F)(F)F)cc34)ncc2F)C1)c1ccccn1 (racemic) [Compound 263] | 15 nM | 3.9 µM | – |
| C[C@@H]1CC[C@H](C)N1C(=O)N[C@H]1CCC[C@@H](Nc2nc(-c3c[nH]c4c(F)cc(F)cc34)ncc2F)C1 (relative stereo) [Compound 13, N-((1R*,3S*)-3-((2-(5,7-difluoro-1H-indol-3-yl)-5-fluoropyrimidin-4-yl)-amino)cyclohexyl)-cis-2,5-dimethylpyrrolidine-1-carboxamide] | 44 nM | 10.7 µM | – |
| C[C@H]1CC[C@H](C)N1C(=O)N[C@H]1CCC[C@@H](Nc2nc(-c3c[nH]c4c(F)cc(F)cc34)ncc2F)C1 (relative stereo) [Compound 14, N-((1R*3S*)-3-((2-(5,7-difluoro-1H-indol-3-yl)-5-fluoropyrimidin-4-yl)amino)cyclohexyl)-trans-2,5-dimethylpyrrolidine-1-carboxamide] | 140 nM | 10.4 µM | – |
| O=C(NC1CCOC1)N[C@@H]1CCC[C@H](Nc2nc(-c3c[nH]c4c(F)cc(F)cc34)ncc2F)C1 (relative stereo) [Compound 15, 1-((1R*,3S*)-3-((2-(5,7-difluoro-1H-indol-3-yl)-5-fluoropyrimidin-4-yl)-amino)cyclohexyl)-3-(tetrahydrofuran-3-yl)urea] | 42 nM | > 25 µM | – |
| Cn1cnc(C(=O)N[C@H]2CCC[C@@H](Nc3nc(-c4c[nH]c5c(F)cc(F)cc45)c(C(F)(F)F)cc3F)C2)c1 (relative stereo) [Compound 16, N-((1S*,3R*)-3-((6-(5,7-difluoro-1H-indol-3-yl)-3-fluoro-5-(trifluoromethyl)pyridin-2-yl)amino)cyclohexyl)-1-methyl-1H-imidazole-4-carboxamide] | 22 nM | 3.9 µM | – |
| Cn1nc(C(=O)O)cc1C(=O)N[C@@H]1CCC[C@H](Nc2nc(-c3c[nH]c4c(F)cc(F)cc34)ncc2F)C1 (relative stereo) [Compound 159, 5-(((1R*,3S*)-3-((2-(5,7-difluoro-1H-indol-3-yl)-5-fluoropyrimidin-4-yl)amino)cyclohexyl)carbamoyl)-1-methyl-1H-pyrazole-3-carboxylic acid] | 310 nM | > 25 µM | – |
| Cn1nc(NS(C)(=O)=O)cc1C(=O)N[C@@H]1CCC[C@H](Nc2nc(-c3c[nH]c4c(F)cc(F)cc34)ncc2F)C1 (relative stereo) [Compound 226, N-((1R*,3S*)-3-((2-(5,7-difluoro-1H-indol-3-yl)-5-fluoropyrimidin-4-yl)-amino)cyclohexyl)-1-methyl-3-(methylsulfonamido)-1H-pyrazole-5-carboxamide] | 3 nM | 17.5 µM | – |
| Cn1nc(NS(N)(=O)=O)cc1C(=O)N[C@@H]1CCC[C@H](Nc2nc(-c3c[nH]c4c(F)cc(F)cc34)ncc2F)C1 (relative stereo) [Compound 227, N-((1R*,3S*)-3-((2-(5,7-difluoro-1H-indol-3-yl)-5-fluoropyrimidin-4-yl)-amino)cyclohexyl)-1-methyl-3-(sulfamoylamino)-1H-pyrazole-5-carboxamide] | 15 nM | > 25 µM | – |
| CC(=O)Nc1cc(C(=O)N[C@@H]2CCC[C@H](Nc3nc(-c4c[nH]c5c(F)cc(F)cc45)ncc3F)C2)n(C)n1 (relative stereo) [Compound 228, 3-acetamido-N-((1R*,3S*)-3-((2-(5,7-difluoro-1H-indol-3-yl)-5-fluoropyrimidin-4-yl)amino)cyclohexyl)-1-methyl-1H-pyrazole-5-carboxamide] | 9 nM | > 25 µM | – |
